Measured values: ChEMBL document CHEMBL1152817, “Prevention of organ allograft rejection by a specific Janus kinase 3 inhibitor” (Science, 2003)

Columns and labels:
T-cell = experiment: cells; conditions: Homo sapiens
Description: Inhibition of IL2-induced proliferation of human T cells assessed as [3H]thymidine incorporation after 72 hrs by scintillation counting

HFF = experiment: cells; conditions: Homo sapiens
Description: Inhibition of fetal calf serum-induced proliferation of human foreskin fibroblast assessed as [3H]thymidine incorporation after 4 days by scintillation counting

[1] = molecular target: Tyrosine-protein kinase JAK2 (Homo sapiens, UniProt O60674)
[2] = molecular target: Tyrosine-protein kinase JAK1 (Homo sapiens, UniProt P23458)
cells = conditions: Homo sapiens, HUO3
Description: Inhibition of human GM-CSF-induced proliferation in human HUO3 cells assessed as [3H]thymidine incorporation after 4 days by scintillation counting

Sequence of Tyrosine-protein kinase JAK2 (O60674 whole entry): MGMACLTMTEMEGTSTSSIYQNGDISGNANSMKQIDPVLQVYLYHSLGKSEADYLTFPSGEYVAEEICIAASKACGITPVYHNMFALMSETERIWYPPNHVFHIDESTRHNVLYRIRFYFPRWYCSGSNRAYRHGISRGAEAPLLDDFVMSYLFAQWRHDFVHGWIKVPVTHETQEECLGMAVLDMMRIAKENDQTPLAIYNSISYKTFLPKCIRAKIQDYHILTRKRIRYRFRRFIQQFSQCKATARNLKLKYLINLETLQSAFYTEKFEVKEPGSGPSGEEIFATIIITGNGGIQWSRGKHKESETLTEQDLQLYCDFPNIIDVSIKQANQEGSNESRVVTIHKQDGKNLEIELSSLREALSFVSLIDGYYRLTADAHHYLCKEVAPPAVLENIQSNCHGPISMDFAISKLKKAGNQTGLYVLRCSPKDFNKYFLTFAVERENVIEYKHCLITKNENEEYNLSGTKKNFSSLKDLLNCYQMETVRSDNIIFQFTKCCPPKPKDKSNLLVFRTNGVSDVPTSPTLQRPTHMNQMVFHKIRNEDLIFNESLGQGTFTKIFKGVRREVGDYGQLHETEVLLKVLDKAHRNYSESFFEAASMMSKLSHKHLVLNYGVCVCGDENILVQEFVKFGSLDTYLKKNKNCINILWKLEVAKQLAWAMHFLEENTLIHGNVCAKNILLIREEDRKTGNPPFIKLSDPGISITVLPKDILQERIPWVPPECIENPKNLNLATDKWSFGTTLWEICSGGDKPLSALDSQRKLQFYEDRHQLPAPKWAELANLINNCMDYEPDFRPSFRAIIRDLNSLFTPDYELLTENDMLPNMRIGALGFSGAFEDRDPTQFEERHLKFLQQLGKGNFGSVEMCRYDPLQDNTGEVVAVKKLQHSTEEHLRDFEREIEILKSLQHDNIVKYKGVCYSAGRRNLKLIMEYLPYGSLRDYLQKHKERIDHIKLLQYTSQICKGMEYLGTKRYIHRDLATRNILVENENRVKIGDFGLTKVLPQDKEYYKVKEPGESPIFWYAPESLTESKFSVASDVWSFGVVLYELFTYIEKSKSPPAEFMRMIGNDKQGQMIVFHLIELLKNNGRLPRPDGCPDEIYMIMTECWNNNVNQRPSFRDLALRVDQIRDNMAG
Sequence of Tyrosine-protein kinase JAK1 (P23458 whole entry): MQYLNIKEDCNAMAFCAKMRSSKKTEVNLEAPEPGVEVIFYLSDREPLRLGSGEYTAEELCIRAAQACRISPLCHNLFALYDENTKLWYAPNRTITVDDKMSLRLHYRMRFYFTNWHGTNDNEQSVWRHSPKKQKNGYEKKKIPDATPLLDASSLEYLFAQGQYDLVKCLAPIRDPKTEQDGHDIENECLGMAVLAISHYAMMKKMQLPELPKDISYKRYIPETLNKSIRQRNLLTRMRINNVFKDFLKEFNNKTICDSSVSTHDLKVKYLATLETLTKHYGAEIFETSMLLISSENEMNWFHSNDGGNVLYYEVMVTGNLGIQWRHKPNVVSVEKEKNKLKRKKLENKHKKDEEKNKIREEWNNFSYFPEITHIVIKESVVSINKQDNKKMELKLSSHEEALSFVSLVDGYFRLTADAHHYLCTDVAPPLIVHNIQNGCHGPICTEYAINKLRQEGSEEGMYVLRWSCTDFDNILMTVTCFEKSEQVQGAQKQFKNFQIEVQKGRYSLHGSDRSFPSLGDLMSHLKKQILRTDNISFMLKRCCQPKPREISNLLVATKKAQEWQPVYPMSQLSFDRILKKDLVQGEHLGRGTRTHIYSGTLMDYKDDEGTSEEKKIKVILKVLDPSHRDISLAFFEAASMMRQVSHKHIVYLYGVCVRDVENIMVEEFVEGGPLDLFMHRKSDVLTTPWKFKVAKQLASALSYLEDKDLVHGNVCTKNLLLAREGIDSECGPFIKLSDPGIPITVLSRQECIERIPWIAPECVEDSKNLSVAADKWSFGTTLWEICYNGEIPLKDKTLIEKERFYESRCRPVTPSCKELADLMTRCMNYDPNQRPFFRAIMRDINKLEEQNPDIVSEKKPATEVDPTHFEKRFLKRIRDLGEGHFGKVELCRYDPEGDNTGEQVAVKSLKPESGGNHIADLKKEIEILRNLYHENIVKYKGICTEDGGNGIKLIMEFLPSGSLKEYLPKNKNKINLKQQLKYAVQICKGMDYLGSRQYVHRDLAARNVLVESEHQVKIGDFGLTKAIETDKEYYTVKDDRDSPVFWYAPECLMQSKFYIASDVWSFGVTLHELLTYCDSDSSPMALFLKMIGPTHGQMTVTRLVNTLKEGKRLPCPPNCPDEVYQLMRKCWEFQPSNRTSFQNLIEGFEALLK

IC50 (T-cell)	IC50 [1]	IC50 [2]	IC50 (cells)	SMILES	IC50 (HFF)
3.69 µM				c1ccc2c(c1)C1CCCCC1N2c1ncnc2[nH]ccc12 (stereo not given)	10 µM
5.09 µM	> 10 µM	> 10 µM		COc1cc2ncnc(Nc3ccc(O)c(Br)c3)c2cc1OC	6.34 µM
3.75 µM	> 10 µM	3.38 µM	7.56 µM	N#C/C(=C\c1ccc(O)c(O)c1)C(=O)NCc1ccccc1	5.58 µM
> 10 µM	> 10 µM	> 10 µM	> 10 µM	COc1cc2ncnc(Nc3ccc(O)cc3)c2cc1OC [WHI-P131]	
